How the values were obtained:
Type in all cases: cell-based, rat
[1] = test system: cerebellar granule neurons; assay: Effect of inhibition of signal transduction pathways on neuroprotection by 1,4-benzoxazines in LK-treated cerebellar granule neurons; settings: LK medium, 24 h; for effect of pharmacological inhibition of the MEK-ERK and PI-3K-Akt pathways on neuroprotective action: PD98059 40 μM, U0126 10 μM, Wortmannin 100 nm, Akt inhibitor-X 5 μM, DAPI
Procedure: Cultures of cerebellar granule neurons were switched to LK medium, LK medium containing of HSB-13, or LK medium containing HSB-13 and either PD98059 (40 μM), U0126 (10 μM), Wortmannin ([…]), Akt inhibitor-X (5 μM), KN-62 (10 μM), H89 (10 μM) and TSA (1 μM). Viability was quantified 24 h later by DAPI staining. The results were normalized to viability in control cultures which were switched to HK medium;
The Raf-MEK-ERK and P1-3 kinase-Akt signaling are two well-established and powerful anti-apoptotic pathways in mammalian cells that mediate the protective effects of a number of neurotrophic polypeptides, pharmacological agents, and neuroprotective compounds (D'Mello and Chin, 2005; Hetman et al., 2006). To determine whether either of these pathways was involved in the neuroprotective effect of 1,4-benzoxazines the inventors studied whether the pharmacological inhibition of these pathways affected their neuroprotective efficacy. […] Similarly, none of the compounds tested (the PI-3 kinase inhibitor, wortmannin, the Akt inhibitor X, or a commercially available inhibitor of Akt) reduced the ability of HSB-13 to protect neurons against LK-induced apoptosis (FIG. 3). […] As observed for HSB-13, pharmacological inhibition of the MEK-ERK and PI-3K-Akt pathways had no effect on the neuroprotective actions of ASK-2a or HSB-22.
Treatment of cerebellar granule neurons with HK activates calcium-calmodulin kinase (CaMK) and inhibition of CaMK with pharmacological inhibitors such as KN-62 inhibits HK-mediated survival (See et al., 2001; Linseman et al., 2003; Morrison et al., 2006). […] The present inventors recognized that several investigators have shown that cyclic AMP analogs and pharmacological activators of protein kinase A promote survival of cerebellar granule neurons as well as other neuronal types in the absence of other survival-promoting stimuli (Rydel and Greene, 1988; D'Mello et al., 1993; Hanson et al., 1998). PKA-mediated neuronal survival is blocked by treatment with H89, a potent and selective PICA inhibitor (Li et al., 2000; Bhave and Hoffman, 2004). […] The inventors have previously reported that histone deacetylase inhibitors such as trichostatin A block the ability of HK to maintain the survival of cerebellar granule neurons (Salminen et al., 1998; Boutillier et al., 2002; Morrison et al., 2006).

phospho-MEK = assay: Western blot of signaling proteins in LK-treated cerebellar granule neurons: phospho-MEK; settings: LK medium with compound, 3 h
Procedure: (§1) Cultures of cerebellar granule neurons were switched to HK medium, LK medium, or LK medium containing of HSB-13, HSB-22, or ASK-2a for 3 h. Total cell lysates were prepared and analyzed by Western blotting using antibodies against phospho-Akt (Ser473), phospho-MEK, phospho-ERK, and phospho-GSK3β.
(§2) The culture medium was removed and the cells were washed twice with ice-cold phosphate-buffered saline (PBS) and lysed in lysis buffer [1% Triton, 20 mM Tris-HCl (pH 7.5), 150 mM NaCl, 1 mM Na2EDTA, 1 mM EGTA, 2.5 mM sodium pyrophosphate, 1 mM beta-glycerophosphate, 1 mM Na3VO4, 1 μg/mL leupeptin and 1 protease inhibitor mixture]. Protein concentrations were measured and normalized using Bradford protein assay reagent (Bio-Rad, Hercules, Calif., USA). Following normalization, 40 μg of protein was subjected to Western blotting. Immunoreactivity was examined by enhanced chemiluminescence (Amersham Bioscience, Piscataway, N.J., USA).
(§3) Activation of MEK, ERK and Akt requires their phosphorylation, which can be detected using phospho-specific antibodies. As previously reported by the inventors and others (Chin et al., 2004; Johnson et al., 2005; Majdzadeh et al., 2008), MEK and ERK phosphorylation decreases following LK treatment of cerebellar granule neurons. This decrease is not prevented by HSB-13, HSB-22, or ASK-2a (FIG. 4). […] This is also not affected by treatment with ASK-2a or HSB-22 (FIG. 4).

phospho-ERK = assay: Western blot of signaling proteins in LK-treated cerebellar granule neurons: phospho-ERK; settings: LK medium with compound, 3 h
Procedure: as §1, §2, §3

phospho-GSK3β = assay: Western blot of signaling proteins in LK-treated cerebellar granule neurons: phospho-GSK3β; settings: LK medium with compound, 3 h
Procedure: as §1, §2
Since the Raf-MEK-ERK and the PI-3 Kinase-Akt pathways are not required for neuroprotection by HSB-13, the involvement of other signaling molecules that are known to promote neuronal survival was determined. GSK3β is a proapoptotic molecule that is activated during apoptosis in many neuronal and non-neuronal systems. Under survival promoting conditions GSK3β is kept inactivated by phosphorylation at an inhibitory site, a modification that can be induced by Akt as well as by other kinases.

c-jun = assay: Western blot of c-jun expression in LK-treated cerebellar granule neurons; settings: 25 μM, 3 h
Procedure: Cerebellar neuron cultures were treated for 3 h with HK, LK, or LK medium containing 25 μM HSB-13, 25 μM ASK-2a, or 25 μM HSB-22. Whole cell lysates were then prepared and subjected to Western blot analysis using antibodies against c-jun and ATF-3.
as §2
C-jun expression is induced in a variety of tissue culture and in vivo paradigms of neuronal apoptosis (Schenkel et al., 2004). […] Treatment with HSB-13 inhibited c-jun expression even lower that that seen in HK-treated cultures. […] The suppression of ATF-3 expression using siRNA inhibits LK-mediated death of cerebellar granule neurons has been previously been described by the present inventors (Chen et al., 2008a). […] As observed with c-jun, the suppression was most robust with HSB-13. As a result these compositions can inhibit the activity of c-jun and ATF-3, which in turn play a role in treating cancer and oncoproteins like c-jun.

Row | Structure (SMILES) | effect of pharmacological inhibition of the MEK-ERK and PI-3K-Akt pathways on neuroprotective action [1] | LK-induced decrease of MEK phosphorylation (phospho-MEK) | LK-induced decrease of ERK phosphorylation (phospho-ERK) | dephosphorylation of GSK3β in LK (phospho-GSK3β) | induction of c-jun expression by LK (c-jun) | neuroprotection in the presence of H89 ([1]; H89 10 μM (PKA inhibitor)) | neuroprotection in the presence of KN-62 ([1]; KN-62 10 μM (CaMK inhibitor)) | neuroprotection in the presence of TSA ([1]; TSA 1 μM (histone deacetylase inhibitor))
1 | O=C1Nc2ccccc2OC1=Cc1cc(Br)c(O)c(Br)c1 [ASK-2a] | no effect | not prevented | not prevented | inhibit dephosphorylation | inhibited |  |  | 
2 | Nc1ccc2c(c1)NC(=O)/C(=C/c1cc(Br)c(O)c(Br)c1)O2 [HSB-13, (Z)-6-amino-2-(3,′5′-dibromo-4′-hydrozybenzylidene)-2H-benzo[b][1,4]oxazin-3(4H)-one] | no effect | not prevented | not prevented | not inhibited | inhibited | no effect | not, however, reduced | did not inhibit
3 | O=C1Nc2cc(Cl)ccc2O/C1=C\c1cc(Br)c(O)c(Br)c1 [HSB-22] | no effect | not prevented | not prevented | inhibit dephosphorylation | inhibited |  |  | 
